US7415358B2, “Molecular toxicology modeling” (Ocimum Biosolutions, Inc., priority 2001, dated 2008)
Like-named read-outs stand apart in the source and are kept apart here.

What was measured:
[1] = in vivo; cited from earlier work
[2] = test system: angiotensin converting enzyme (ACE); conditions: rats, 20, 25, and 30 days post-treatment; cited from earlier work
[3] = rat, in vivo, 65 mg/kg; cited from earlier work
renal cortex = conditions: cited from earlier work
glutathione reductase = conditions: cited from earlier work
[4] = CMV patients; cited from earlier work
[5] = rats, cited from earlier work
[6] = rats, began on day 3; cited from earlier work
[7] = rabbit, in vivo; cited from earlier work
[8] = Clinical chemistry of the dosed rats; type: in vivo; conditions: rats given the high dosage
rat hepatocytes = conditions: cited from earlier work
[9] = rats fed hydralazine, compared to control groups; cited from earlier work
[10] = rats and mice, varying doses; cited from earlier work
[11] = rat, in vivo; cited from earlier work
[12] = test system: glomerular epithelial cell; conditions: rat, in vivo; cited from earlier work
[13] = four HIV-positive patients treated for toxoplasmosis; cited from earlier work
[14] = treatment 2 to 25 years; cited from earlier work
[15] = male Wistar rats, daily doses within human therapeutic range; cited from earlier work

In the case of “9-[(2-hydroxyethyl) methyl] guanine [ACYCLOVIR]”, the excretion [1] is given as “most of it is excreted in the urine largely unchanged”.

For `COc1cccc2c1C(=O)c1c(O)c3c(c(O)c1C2=O)C[C@@](O)(C(=O)CO)C[C@@H]3O[C@H]1C[C@H](N)[C@H](O)[C@H](C)O1` [ADR], the “serum ACE levels” value [2] is listed as “serum ACE levels were significantly elevated”.

For `N.N.O=C([O-])C1(C(=O)[O-])CCC1.[Pt+2]` [CARBOPLATIN], the CGT excretion [3] is listed as “increased approximately two-fold”.

In the case of `O=C(Cc1cccs1)N[C@@H]1C(=O)N2C(C(=O)[O-])=C(C[n+]3ccccc3)CS[C@H]12` [CEPHALORIDINE], the “reduced glutathione (GSH) in the renal cortex” value (renal cortex) is listed as “depleted reduced glutathione (GSH)” and the glutathione reductase activity (glutathione reductase) is listed as “inhibited glutathione reductase”.

In the case of `Nc1ccn(C[C@@H](CO)OCP(=O)(O)O)c(=O)n1` [CIDOFOVIR], the “patients with dose-dependent asymptomatic proteinuria” value [4] is listed as “Approximately 40%” and the “patients with elevated serum creatinine levels” value [4] is listed as 25%.

In the case of `N.N.[Cl][Pt][Cl]` [CISPLATIN, Pt(NH3)2(Cl)2], the BUN ([5]; day 2, high-dose groups (10-15 mg/kg)) is listed as “six or seven-fold elevation in BUN”, the BUN ([5]; day 4, 5 mg/kg group) is listed as “BUN elevation was noted” and the serum creatinine levels [6] is listed as “elevations in serum creatinine levels”.

In the case of `CC1=C2C(=CO[C@H](C)[C@H]2C)C(O)=C(C(=O)O)C1=O` [CITRININ], the “creatinine clearance, blood urea nitrogen, serum creatinine (renal failure)” value [7] is given as “decreased creatinine clearance and increased blood urea nitrogen and serum-creatinine levels”.

For `O=C(O)c1cc(-c2ccc(F)cc2F)ccc1O` [DIFLUNISAL], the concentrations of creatinine [8] is given as “increased concentrations of creatinine”, the LDH leakage (rat hepatocytes; 500 μM, compared to control) is given as “increase LDH leakage” and the “intracellular ATP concentrations” value (rat hepatocytes) is given as “decreased intracellular ATP concentrations”.

For `NNc1nncc2ccccc12` [HYDRALAZINE], the kidney copper concentrations [9] is given as “kidney copper concentrations were increased”.

In the case of `NCCC(O)(P(=O)(O)O)P(=O)(O)O` [PAMIDRONATE], the “body weight and creatinine clearance” value [10] is listed as “significant weight loss and a decrease in creatinine clearance”.

For `CN(C)c1ncnc2c1ncn2[C@@H]1O[C@H](CO)[C@@H](N)[C@H]1O` [PAN, puromycin aminonucleoside], the proteinuria [11] is given as “led to proteinuria” and the “glomerular epithelial cell apoptosis” value [12] is given as “induced glomerular epithelial cell apoptosis”.

In the case of `Nc1ccc(S(=O)(=O)Nc2ncccn2)cc1` [SULFADIAZINE], the “clinical renal adverse findings” value [13] is given as “developed oliguria, abdominal pain, renal failure”.

For LITHIUMCHLORIDE, the “patients with nephrogenic diabetes insipidus (NDI)” value [14] is listed as roughly 90%, the “patients with nephrotic proteinuria” value [14] is listed as “Approximately one fourth” and the polyuria [15] is listed as “marked polyuria within three weeks”.
